Measurements published in patent publication US20240400575A1, “POLYCYCLIC COMPOUNDS AS SOLUBLE EPOXIDE HYDROLASE INHIBITORS” (Universitat De Barcelona, priority 2018, published 2024).

The compounds below were run against T1, recombinant human sEH (hsEH) (Homo sapiens, UniProt P34913) (assay: In vitro determination of sEH inhibition activity (fluorescent assay, PHOME substrate)). Conditions: fluorescence, Bis/Tris HCl pH 7.0 with 0.1 mg/mL BSA.
T1 construct: purchased Cayman Chemical 10011669
T1 sequence (P34913 1-555): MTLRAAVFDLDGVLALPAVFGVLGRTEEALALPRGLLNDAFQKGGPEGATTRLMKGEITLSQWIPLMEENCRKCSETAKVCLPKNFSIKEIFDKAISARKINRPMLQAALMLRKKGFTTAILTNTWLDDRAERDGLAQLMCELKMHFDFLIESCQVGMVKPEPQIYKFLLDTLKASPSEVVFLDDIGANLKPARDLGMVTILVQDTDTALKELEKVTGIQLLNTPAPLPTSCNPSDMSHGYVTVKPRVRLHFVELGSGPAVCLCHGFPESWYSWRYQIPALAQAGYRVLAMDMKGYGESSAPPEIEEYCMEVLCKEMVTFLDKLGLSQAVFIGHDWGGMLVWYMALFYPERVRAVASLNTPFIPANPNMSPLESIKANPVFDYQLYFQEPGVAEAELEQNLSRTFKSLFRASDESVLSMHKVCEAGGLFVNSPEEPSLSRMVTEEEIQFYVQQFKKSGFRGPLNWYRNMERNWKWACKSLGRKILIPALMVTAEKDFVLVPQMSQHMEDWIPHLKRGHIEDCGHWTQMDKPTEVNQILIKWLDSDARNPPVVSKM
Type: biochemical
Description: Add 5 μL of DMSO to background and positive control wells, and then add 5 μL of inhibitor solution in inhibitor wells. Add 5 μL of the solution of hsEH to the positive control and inhibitor wells and stir the mixture. Prepare a 1/21 dilution of the solution of PHOME with assay buffer according to final volume required, and then add 105 μL of each well. Shake carefully the plate for 10 seconds and incubate for 5 minutes at room temperature. […] The intensity of fluorescence was used to analyze and calculate the IC50 values. Results were obtained by regression analysis from at least three data points in a linear region of the curve. IC50 values are average of minimum three independent replicates.

First: CC12CC3CC(NC(=S)Nc4ccc(C(F)(F)F)cc4)(CC(C1)c1ccccc13)C2 [Example 35, 1-(9-methyl-5,6,8,9,10,11-hexahydro-7H-5,9:7,11-dimethanobenzo[9]annulen-7-yl)-3-(4-(trifluoromethyl)phenyl)thiourea]
Second: CC12CC3CC(NC(=O)Nc4ccc(F)c(F)c4F)(CC(C1)c1ccccc13)C2 [Example 58, 1-(9-methyl-6,7,8,9,10,11-hexahydro-5H-5,9:7,11-dimethanobenzo[9]annulen-7-yl)-3-(2,3,4-trifluorophenyl)urea]
The IC50 of the first is higher: 100 to 1000 nM for the first, < 10 nM for the second.

First: CC(=O)N1CCC(NC(=O)NC23CC4CC(C)(CC(C2)c2ccccc24)O3)CC1 [Example 36, 1-(1-acetylpiperidin-4-yl)-3-(5-methyl-1,5,6,7-tetrahydro-1,5:3,7-dimethanobenzo[e]oxonin-3(2H)-yl)urea]
Second: CC(=O)N1CCC(NC(=O)NC23CC4CC2CC(C3)c2ccccc24)CC1 [Example 72, 1-(1-acetylpiperidin-4-yl)-3-(5,8,9,10-tetrahydro-5,8:7,10-dimethano-benzo[8]annulen-7(6H)-yl)urea]
The IC50 of the first is higher: 100 to 1000 nM for the first, 10 to 50 nM for the second. The second is the more potent here.

First: CC12CC3CC(NC(=O)NC4CCC(Oc5ccc(C(=O)O)cc5)CC4)(CC(C1)c1ccccc13)O2 (centres unmarked) [Example 43, 4-(((1r,4r)-4-(3-(5-methyl-1,5,6,7-tetrahydro-1,5:3,7-dimethanobenzo [e]oxonin-3(2H)-yl)ureido)cyclohexyl)oxy)benzoic acid]
Second: CC12CC3CC(NC(=O)NC4CCC(Oc5ccc(C(=O)O)cc5)CC4)(CC(C1)c1ccccc13)C2 (centres unmarked) [Example 44, 4-(((1r,4r)-4-(3-(9-methyl-5,6,8,9,10,11-hexahydro-7H-5,9:7,11-dimethanobenzo[9]annulen-7-yl)ureido)cyclohexyl)oxy)benzoic acid]
The IC50 of the first is higher: 10 to 50 nM for the first, < 10 nM for the second. The second is the more potent here.

First: CC12CC3CC(NC(=O)NC4CCN(Cc5ccccc5)CC4)(CC(C1)c1ccccc13)C2 [Example 48, 1-(1-benzylpiperidin-4-yl)-3-(9-methyl-5,6,8,9,10,11-hexahydro-7H-5,9:7,11-dimethanobenzo[9]annulen-7-yl)urea]
Second: CC12CC3CC(NC(=O)CC4CCN(Cc5ccccc5)CC4)(CC(C1)c1ccccc13)C2 [Example 60, 2-(1-benzylpiperidin-4-yl)-N-(9-methyl-5,6,8,9,10,11-hexahydro-7H-5.9:7,11-dimethanobenzo[9]annulen-7-yl)acetamide]
The IC50 of the first is lower: < 10 nM for the first, 100 to 1000 nM for the second.

First: CC(=O)c1ccc2c(c1)C1CC3(C)CC2CC(NC(=O)NC2CCN(C(C)=O)CC2)(C1)C3 (centres unmarked) [Example 51, 1-(2-acetyl-9-methyl-5,6,8,9,10,11-hexahydro-7H-5,9:7,11-dimethano-benzo[9]annulen-7-yl)-3-(1-acetylpiperidin-4-yl)urea]
Second: CC(=O)N1CCC(NC(=O)NC23CC4CC(C)(CC(C2)c2cc(N)ccc24)C3)CC1 (centres unmarked) [Example 53, 1-(1-acetylpiperidin-4-yl)-3-(2-amino-9-methyl-5,6,8,9,10,11-hexa-hydro-7H-5,9:7,11-dimethanobenzo[9]annulen-7-yl)urea]
The IC50 of the first is lower: < 10 nM for the first, 10 to 50 nM for the second.

`CC(=O)N1CCC(NC(=O)NC23CC4CC(C)(CC(C2)c2cc([N+](=O)[O-])ccc24)C3)CC1` (centres unmarked) [Example 52, 1-(1-acetylpiperidin-4-yl)-3-(9-methyl-2-nitro-5,6,8,9,10,11-hexahydro-7H-5,9:7,11-dimethanobenzo[9]annulen-7-yl)urea] and `CC(=O)N1CCC(NC(=O)NC23CC4CC(C)(CC(C2)c2cc(F)ccc24)C3)CC1` (centres unmarked) [Example 68, 1-(1-acetylpiperidin-4-yl)-3-(2-fluoro-9-methyl-5,6,8,9,10,11-hexahydro-7H-5,9:7,11-dimethanobenzo[9]annulen-7-yl)urea] cannot be ordered by IC50: < 10 nM for the first, < 10 nM for the second.

Compared with `CC(C)S(=O)(=O)N1CCC(CC(=O)NC23CC4CC(C)(CC(C2)c2ccccc24)C3)CC1` [Example 56, 2-[1-(isopropylsulfonyl)piperidin-4-yl]-N-(9-methyl-5,6,8,9,10,11-hexahydro-7H-5,9:7,11-dimethanobenzo[9]annulen-7-yl)acetamide], `CC(=O)N1CCC(CC(=O)NC23CC4CC(C)(CC(C2)c2ccccc24)C3)CC1` [Example 57, 2-(1-acetylpiperidin-4-yl)-N-(9-methyl-5,6,8,9,10,11-hexahydro-7H-5,9:7,11-dimethanobenzo[9]annulen-7-yl)acetamide] is higher in IC50: 10 to 50 nM for the first, 100 to 1000 nM for the second.

First: CC12CC3CC(NC(=O)Nc4ccc(F)c(F)c4F)(CC(C1)c1ccccc13)O2 [Example 59, 1-(5-methyl-1,5,6,7-tetrahydro-1,5:3,7-dimethanobenzo[e]oxonin-3(2H)-yl)-3-(2,3,4-trifluorophenyl)urea]
Second: COC12CC3CC(NC(=O)Nc4nc5ccccc5s4)(CC(C1)c1ccccc13)C2 [Example 73, 1-(benzo[d]thiazol-2-yl)-3-(9-methoxy-5,6,8,9,10,11-hexahydro-7H-5,9:7,11-dimethanobenzo[9]annulen-7-yl)urea]
The IC50 of the first is lower: 10 to 50 nM for the first, 100 to 1000 nM for the second. The first is the more potent here.

`CC(=O)c1ccc(N2CCC(NC(=O)NC34CC5CC(C)(CC(C3)c3ccccc35)C4)CC2)cc1` [Example 64, 1-(1-(4-acetylphenyl)piperidin-4-yl)-3-(9-methyl-5,6,8,9,10,11-hexahydro-7H-5,9:7,11-dimethanobenzo[9]annulen-7-yl)urea] and `CC12CC3CC(NC(=O)NC4CCN(C(=O)c5ccccc5F)CC4)(CC(C1)c1ccccc13)C2` [Example 66, 1-(1-(2-fluorobenzoyl)piperidin-4-yl)-3-(9-methyl-5,6,8,9,10,11-hexa-hydro-7H-5,9:7,11-dimethanobenzo[9]annulen-7-yl)urea] cannot be ordered by IC50: < 10 nM for the first, < 10 nM for the second.

`CC12CC3CC(NC(=O)NC4CC5CCC(C4)N5Cc4ccccc4)(CC(C1)c1ccccc13)C2` [Example 67, 1-((1R,3s,5S)-8-benzyl-8-azabicyclo[3.2.1]octan-3-yl)-3-(9-methyl-5,6,8.9.10,11-hexahydro-7H-5.9:7,11-dimethanobenzo[9]annulen-7-yl)urea] and `COc1ccc2c(c1)C1CC3(C)CC2CC(NC(=O)NC2CCN(C(C)=O)CC2)(C1)C3` (centres unmarked) [Example 69, 1-(1-acetylpiperidin-4-yl)-3-(2-methoxy-9-methyl-5,6,8,9,10,11-hexa-hydro-7H-5.9:7,11-dimethanobenzo[9]annulen-7-yl)urea] cannot be ordered by IC50: < 10 nM for the first, < 10 nM for the second.

`CC(=O)N1CCC(NC(=O)NC23CC4CC(C)(CC(C2)c2c(F)cccc24)C3)CC1` (centres unmarked) [Example 70, 1-(1-acetylpiperidin-4-yl)-3-(1-fluoro-9-methyl-5,6,8,9,10,11-hexahydro-7H-5,9:7,11-dimethanobenzo[9]annulen-7-yl)urea] and `CC(=O)N1CCC(NC(=O)NC23CC4CC(F)(CC(C2)c2c(F)cccc24)C3)CC1` (centres unmarked) [Example 74, 1-(1-acetylpiperidin-4-yl)-3-(1,9-difluoro-5,6,8,9,10,11-hexahydro-7H-5,9:7,11-dimethanobenzo[9]annulen-7-yl)urea] cannot be ordered by IC50: < 10 nM for the first, < 10 nM for the second.

With `COc1cc2c(cc1OC)C1CC3(C)CC2CC(NC(=O)NC2CCN(C(C)=O)CC2)(C1)C3` [Example 71, 1-(1-acetylpiperidin-4-yl)-3-(2,3-dimethoxy-9-methyl-5,6,8,9,10,11-hexahydro-7H-5.9:7,11-dimethanobenzo[9]annulen-7-yl)urea] the IC50 was < 10 nM.
